In patent US6852755B1 (priority 1999, dated 2005):

System: breast carcinoma xenograft (50% MDA MB361 cells expressing β-galactosidase plus 50% MDA MB361-STCPG2(O)3 cells expressing surface tethered carboxypeptidase G2 …)
Set-up: species or system Nu/Nu BalbC mouse
Conditions: mouse, in vivo

## O=C(O)CC[C@H](NC(=O)c1ccc(N(CCCl)CCCl)c(F)c1)C(=O)O [B, {3-fluoro-4-[bis(2-chloroethyl)amino]benzoyl}-L-glutamic acid]
  time up to which 50% survival was found post-treatment: about 70 days

## O=C(O)CC[C@H](NC(=O)c1cc(F)c(N(CCI)CCI)c(F)c1)C(=O)O [Example 1, {3,5-difluoro-4-[bis(2-iodoethyl)amino]benzoyl}-L-glutamic acid]
  time for which a 50% survival rate was provided: over 200 days
